Like-named read-outs stand apart in the source and are kept apart here.
Tests used:
Assay type in all cases: in vivo
[1] = system: pigweed (Amaranthus retroflexus); assay: Test A postemergence; details: Amaranthus retroflexus, post-emergence, 240 h, read-out: Plant response rating, Pigweed; for pest or weed control at 125 g/ha: 125 g ai/ha, visual rating after approx. 10 d; for pest or weed control at 500 g/ha: 500 g ai/ha
Method in brief: (§1)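 Compounds were formulated in a non-phytotoxic solvent mixture with surfactant and applied as a preemergence directed soil spray after seeding, or sprayed postemergence over plants 2 to 10 cm tall at the one- to two-leaf stage. Evaluation after about 10 d compared treated with untreated controls, using a scale from 0 (no effect) to 100 (complete control).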

corn (Zea mays) [2] = assay: Test A postemergence; details: Zea mays, post-emergence, 240 h; for Corn plant response rating (crop injury, 0 = no effect, 100 = complete kill) at 125 g/ha: 125 g ai/ha, postemergence, visual rating after approx. 10 d, 0 to 100 scale (0 no effect, 100 complete control); for Corn plant response rating (crop injury, 0 = no effect, 100 = complete kill) at 500 g/ha: Postemergence, 500 g ai/ha, 0 to 100 scale where 0 is no effect and 100 is complete control
Method in brief: as §1

[3] = system: ragweed (common ragweed, Ambrosia elatior); assay: Test A postemergence; details: Ambrosia artemisiifolia, post-emergence, 240 h, read-out: Plant response rating, Ragweed; for pest or weed control at 125 g/ha: 125 g ai/ha, visual rating after approx. 10 d; for pest or weed control at 500 g/ha: 500 g ai/ha
Method in brief: as §1

[4] = system: ryegrass, Italian (Italian ryegrass, Lolium multiflorum); assay: Test A postemergence; details: Lolium multiflorum, post-emergence, 240 h, read-out: Plant response rating, Ryegrass, Italian; for pest or weed control at 125 g/ha: 125 g ai/ha, visual rating after approx. 10 d; for pest or weed control at 500 g/ha: 500 g ai/ha
Method in brief: as §1

[5] = system: blackgrass (Alopecurus myosuroides); assay: Test A postemergence; details: Alopecurus myosuroides, post-emergence, 240 h, read-out: Plant response rating, Blackgrass; for pest or weed control at 125 g/ha: 125 g ai/ha, postemergence, visual rating after approx. 10 d, 0 to 100 scale (0 no effect, 100 complete control); for pest or weed control at 500 g/ha: Postemergence, 500 g ai/ha, 0 to 100 scale where 0 is no effect and 100 is complete control
Method in brief: as §1

[6] = system: Galium (catchweed bedstraw, Galium aparine); assay: Test A postemergence; details: Galium, post-emergence, 240 h, read-out: Plant response rating, Galium; for pest or weed control at 125 g/ha: 125 g ai/ha, visual rating after approx. 10 d; for pest or weed control at 500 g/ha: 500 g ai/ha
Method in brief: as §1

corn (Zea mays) [7] = assay: Test C preemergence; details: for Plant response rating (scale of 0 to 100), Corn: 31 g ai/ha, 0 is no effect, 100 is complete control; for Plant response rating, Corn: scale 0 to 100, 0 no effect, 100 complete control
Method in brief: (§2)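 Herbicidal effect, applied preemergence to sown seeds or postemergence to 1- to 4-leaf plants, was scored visually 13 to 15 d after application, 0 to 100 versus controls.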

[8] = system: morningglory (Ipomoea coccinea); assay: Test C preemergence; details: for Plant response rating (scale of 0 to 100), Morningglory: 31 g ai/ha, 0 is no effect, 100 is complete control; for Plant response rating, Morningglory: scale 0 to 100, 0 no effect, 100 complete control
Method in brief: as §2

[9] = system: oilseed rape (Brassica napus); assay: Test C preemergence; details: for Plant response rating (scale of 0 to 100), Oilseed Rape: 31 g ai/ha, 0 is no effect, 100 is complete control; for Plant response rating, Oilseed Rape: scale 0 to 100, 0 no effect, 100 complete control
Method in brief: as §2

[10] = system: johnsongrass (Sorghum halepense); assay: Test C preemergence; details: for Plant response rating (scale of 0 to 100), Johnsongrass: 31 g ai/ha, 0 is no effect, 100 is complete control; for Plant response rating, Johnsongrass: scale 0 to 100, 0 no effect, 100 complete control
Method in brief: as §2

[11] = system: lambsquarters (Chenopodium album); assay: Test C preemergence; details: for Plant response rating (scale of 0 to 100), Lambsquarters: 31 g ai/ha, 0 is no effect, 100 is complete control; for Plant response rating, Lambsquarters: scale 0 to 100, 0 no effect, 100 complete control
Method in brief: as §2

[12] = system: blackgrass (Alopecurus myosuroides); assay: Test C preemergence; details: for Plant response rating (scale of 0 to 100), Blackgrass: 31 g ai/ha, 0 is no effect, 100 is complete control; for Plant response rating, Blackgrass: scale 0 to 100, 0 no effect, 100 complete control
Method in brief: as §2

[13] = system: velvetleaf (Abutilon theophrasti); assay: Test C preemergence; details: for Plant response rating (scale of 0 to 100), Velvetleaf: 31 g ai/ha, 0 is no effect, 100 is complete control; for Plant response rating, Velvetleaf: scale 0 to 100, 0 no effect, 100 complete control
Method in brief: as §2

[14] = system: Galium (catchweed bedstraw, Galium aparine); assay: Test C preemergence; details: for Plant response rating (scale of 0 to 100), Galium: 31 g ai/ha, 0 is no effect, 100 is complete control; for Plant response rating, Galium: scale 0 to 100, 0 no effect, 100 complete control
Method in brief: as §2

[15] = system: waterhemp (common waterhemp, Amaranthus rudis); assay: Test C preemergence; details: for Plant response rating (scale of 0 to 100), Waterhemp: 31 g ai/ha, 0 is no effect, 100 is complete control; for Plant response rating, Waterhemp: scale 0 to 100, 0 no effect, 100 complete control
Method in brief: as §2

[16] = postemergence, 0 to 100 scale (0 no effect, 100 complete control)
[17] = Postemergence, 0 to 100 scale where 0 is no effect and 100 is complete control
[18] = postemergence, visual injury, 0 to 100 scale (0 no effect, 100 complete control), approx. 10 d

SMILES: CN1C[C@H](c2ccc(C(F)(F)F)cc2)[C@@H](C(=O)Nc2ccccc2F)C1=O [Compound 622, (3S,4S)—N-(2-fluorophenyl)-1-methyl-2-oxo-4-[4-(trifluoromethyl)phenyl]-3-pyrrolidinecarboxamide]
- pest or weed control at 125 g/ha [1, 16]: 40%
- pest or weed control at 500 g/ha [1, 17]: 50%
- Corn plant response rating (crop injury, 0 = no effect, 100 = complete kill) at 125 g/ha (corn (Zea mays) [2]): 50%
- Corn plant response rating (crop injury, 0 = no effect, 100 = complete kill) at 500 g/ha (corn (Zea mays) [2]): 70%
- pest or weed control at 125 g/ha [3, 16]: 0%
- pest or weed control at 500 g/ha [3, 17]: 40%
- pest or weed control at 125 g/ha [4, 16]: 30%
- pest or weed control at 500 g/ha [4, 17]: 50%
- pest or weed control at 125 g/ha [5]: 30%
- pest or weed control at 500 g/ha [5]: 60%
- pest or weed control at 125 g/ha [6, 16]: 60%
- pest or weed control at 500 g/ha [6, 17]: 70%
- Plant response rating (scale of 0 to 100), Corn (corn (Zea mays) [7]): 5
- Plant response rating, Corn (corn (Zea mays) [7]; 62 g ai/ha): 45
- Plant response rating, Corn (corn (Zea mays) [7]; 125 g ai/ha): 85
- Plant response rating, Corn (corn (Zea mays) [7]; 250 g ai/ha): 80
- Plant response rating (scale of 0 to 100), Morningglory [8]: 0
- Plant response rating, Morningglory ([8]; 62 g ai/ha): 0
- Plant response rating, Morningglory ([8]; 125 g ai/ha): 25
- Plant response rating, Morningglory ([8]; 250 g ai/ha): 20
- Plant response rating (scale of 0 to 100), Oilseed Rape [9]: 60
- Plant response rating, Oilseed Rape ([9]; 62 g ai/ha): 85
- Plant response rating, Oilseed Rape ([9]; 125 g ai/ha): 85
- Plant response rating, Oilseed Rape ([9]; 250 g ai/ha): 85
- Plant response rating (scale of 0 to 100), Johnsongrass [10]: 25
- Plant response rating, Johnsongrass ([10]; 62 g ai/ha): 60
- Plant response rating, Johnsongrass ([10]; 125 g ai/ha): 50
- Plant response rating, Johnsongrass ([10]; 250 g ai/ha): 65
- Plant response rating (scale of 0 to 100), Lambsquarters [11]: 75
- Plant response rating, Lambsquarters ([11]; 62 g ai/ha): 35
- Plant response rating, Lambsquarters ([11]; 125 g ai/ha): 70
- Plant response rating, Lambsquarters ([11]; 250 g ai/ha): 75
- Plant response rating (scale of 0 to 100), Blackgrass [12]: 0
- Plant response rating, Blackgrass ([12]; 62 g ai/ha): 0
- Plant response rating, Blackgrass ([12]; 125 g ai/ha): 80
- Plant response rating, Blackgrass ([12]; 250 g ai/ha): 85
- Plant response rating (scale of 0 to 100), Velvetleaf [13]: 0
- Plant response rating, Velvetleaf ([13]; 62 g ai/ha): 25
- Plant response rating, Velvetleaf ([13]; 125 g ai/ha): 70
- Plant response rating, Velvetleaf ([13]; 250 g ai/ha): 70
- Plant response rating (scale of 0 to 100), Galium [14]: 80
- Plant response rating, Galium ([14]; 62 g ai/ha): 90
- Plant response rating, Galium ([14]; 125 g ai/ha): 90
- Plant response rating, Galium ([14]; 250 g ai/ha): 90
- Plant response rating (scale of 0 to 100), Waterhemp [15]: 75
- Plant response rating, Waterhemp ([15]; 62 g ai/ha): 85
- Plant response rating, Waterhemp ([15]; 125 g ai/ha): 90
- Plant response rating, Waterhemp ([15]; 250 g ai/ha): 90

SMILES: CN1C[C@H](c2ccc(F)c(F)c2)[C@@H](C(=O)Nc2cccc(F)c2F)C1=O [Compound 639, (3S,4S)—N-(2,3-difluorophenyl)-4-(3,4-difluorophenyl)-1-methyl-2-oxo-3-pyrrolidinecarboxamide]
- pest or weed control at 125 g/ha [1, 16]: 20%
- pest or weed control at 500 g/ha [1, 18]: 50%
- Corn plant response rating (crop injury, 0 = no effect, 100 = complete kill) at 125 g/ha (corn (Zea mays) [2]): 40%
- Corn plant response rating (crop injury, 0 = no effect, 100 = complete kill) at 500 g/ha (corn (Zea mays) [2]): 80%
- pest or weed control at 125 g/ha [3, 16]: 0%
- pest or weed control at 500 g/ha [3, 18]: 30%
- pest or weed control at 125 g/ha [4, 16]: 30%
- pest or weed control at 500 g/ha [4, 18]: 50%
- pest or weed control at 125 g/ha [5]: 60%
- pest or weed control at 500 g/ha [5]: 60%
- pest or weed control at 125 g/ha [6, 16]: 40%
- pest or weed control at 500 g/ha [6, 18]: 50%
- Plant response rating (scale of 0 to 100), Corn (corn (Zea mays) [7]): 5
- Plant response rating, Corn (corn (Zea mays) [7]; 62 g ai/ha): 40
- Plant response rating, Corn (corn (Zea mays) [7]; 125 g ai/ha): 80
- Plant response rating, Corn (corn (Zea mays) [7]; 250 g ai/ha): 85
- Plant response rating (scale of 0 to 100), Morningglory [8]: 20
- Plant response rating, Morningglory ([8]; 62 g ai/ha): 10
- Plant response rating, Morningglory ([8]; 125 g ai/ha): 35
- Plant response rating, Morningglory ([8]; 250 g ai/ha): 40
- Plant response rating (scale of 0 to 100), Oilseed Rape [9]: 0
- Plant response rating, Oilseed Rape ([9]; 62 g ai/ha): 60
- Plant response rating, Oilseed Rape ([9]; 125 g ai/ha): 85
- Plant response rating, Oilseed Rape ([9]; 250 g ai/ha): 90
- Plant response rating (scale of 0 to 100), Johnsongrass [10]: 20
- Plant response rating, Johnsongrass ([10]; 62 g ai/ha): 65
- Plant response rating, Johnsongrass ([10]; 125 g ai/ha): 80
- Plant response rating, Johnsongrass ([10]; 250 g ai/ha): 90
- Plant response rating (scale of 0 to 100), Lambsquarters [11]: 20
- Plant response rating, Lambsquarters ([11]; 62 g ai/ha): 25
- Plant response rating, Lambsquarters ([11]; 125 g ai/ha): 40
- Plant response rating, Lambsquarters ([11]; 250 g ai/ha): 70
- Plant response rating (scale of 0 to 100), Blackgrass [12]: 40
- Plant response rating, Blackgrass ([12]; 62 g ai/ha): 85
- Plant response rating, Blackgrass ([12]; 125 g ai/ha): 85
- Plant response rating, Blackgrass ([12]; 250 g ai/ha): 90
- Plant response rating (scale of 0 to 100), Velvetleaf [13]: 0
- Plant response rating, Velvetleaf ([13]; 62 g ai/ha): 30
- Plant response rating, Velvetleaf ([13]; 125 g ai/ha): 65
- Plant response rating, Velvetleaf ([13]; 250 g ai/ha): 55
- Plant response rating (scale of 0 to 100), Galium [14]: 85
- Plant response rating, Galium ([14]; 62 g ai/ha): 80
- Plant response rating, Galium ([14]; 125 g ai/ha): 85
- Plant response rating, Galium ([14]; 250 g ai/ha): 95
- Plant response rating (scale of 0 to 100), Waterhemp [15]: 50
- Plant response rating, Waterhemp ([15]; 62 g ai/ha): 65
- Plant response rating, Waterhemp ([15]; 125 g ai/ha): 75
- Plant response rating, Waterhemp ([15]; 250 g ai/ha): 80

From patent publication US12077503B2, “Substituted cyclic amides and their use as herbicides” (FMC CORPORATION, priority 2015, dated 2024)
